Test results: patent US20080318892A1, “METHODS AND FORMULATIONS FOR PROTECTING CELLS, AND FOR TREATING DISEASES AND CONDITIONS BY OPTIMIZING THE INTRACELLULAR CONCENTRATION OF NAD” (priority 2007, published 2008)
Positions count from the first letter of the chain named. In names and notes the source's numbering stands.

Assays:
Nampt = molecular target: T1, Nampt (Homo sapiens, UniProt P43490); experiment: Nicotinamide phosphoribosyltransferase (Nampt/PBEF) activity in SMC lysates, [14C]nicotinamide to NMN; type: cell-based
T1 construct: endogenous in cells; host or cells: human vascular SMCs (primary and HITC6), whole cell lysates
Procedure: Nicotinamide Phosphoribosyltransferase Activity. […] Labelled acetone-precipitable nicotinamide mononucleotide was quantified by scintillation counting.
Assessment of Nicotinamide Phosphoribosyltransferase Activity. […] Briefly, SMCs were lysed in buffer containing 10 mM NaH2PO4/Na2HPO4, at pH 8.8. Cell lysates were incubated with 0.5 μM [carbonyl-^14C]nicotinamide and 0.5 mM phosphoribosylpyrophosphate for 4 h on a rotating rocker at 37° C.

HITC6 SMCs [1] = experiment: Senescence-associated beta-galactosidase activity / senescence-free survival; type: cell-based, human; details: for relative increase in senescence: 37th subculture
Procedure: Senescence-associated β-Galatosidase Activity Assay. SMCs on glass coverslips at approximately 70% confluence were fixed in 2% formaldehyde/0.2% glutaraldehyde in PBS for 3 minutes and incubated with X-gal-containing reaction mixture, as previously described (Dimri, 1995). Washed cells were stained with Hoechst 33258 (2.5 μg/ml) and the proportion of senescence-associated β-galactosidase (SA β-Gal)-positive cells quantified from 10 microscope fields of view (Olympus BX51, ×20 objective, approximately 1200 cells). Senescence-free survival was determined using Kaplan-Meier analysis of survival vs. replicative age.
Senescence-associated Beta-galactosidase Activity. Senescence-associated beta-galactosidase (SA-β-gal) activity was determined as previously described (Dimri et al, 1995). Briefly, SMCs were fixed in PBS containing 2% formaldehyde/0.2% glutaraldehyde for 3 min at room temperature. Fixed cells were then incubated for 4-6 h at 37° C. with SA-β-gal stain solution containing 150 mM NaCl, 2 mM MgCl, 40 mM citrate, 5 mM potassium ferrocyanide, 5 mM potassium ferricyanide, and 1 mg/ml of 5-bromo-4-chloro-3-indolyl-β-D-galactopyranoside (X-gal) (Invitrogen, Carlsbad, Calif., USA), at pH 6.0. SMCs were counterstained with 2.5 μg/ml Hoechst 33258 to detect cell nuclei. The proportion of SA-β-gal activity positive cells was quantified using light and fluorescence microscopy (Olympus BX51, Center Valley, Pa., USA).

SIRT1 = SIRT1 deacetylase activity in live SMCs (Fluor de Lys-SIRT1 substrate, TSA-independent); type: cell-based, human; details: HITC6 SMCs incubated with 10 nM FK866, 48 h
Procedure: In vivo assessment of SIRT1 deacetylase activity. Cell-based assessment of SIRT1-like enzymatic activity was performed using the Fluor de lys-SIRT1 substrate (Biomol, Plymouth Meeting, Pa.), as previously described (de Boer, 2006). SMCs in phenol-red free M199 with 5% FBS were incubated for 2 h with 5 μM TSA followed by addition of the fluorogenic substrate for 4 h. Signal was quantified by spectrofluorimetry (Wallac, Wellesley, Mass.) and normalized to total protein content.
Assessment of SIRT1 Deacetylase Activity. SIRT1 deacetylase activity was quantified in live cells as previously reported (de Boer et al, 2006). SMCs cultured in phenol red-free M199 were incubated without serum for 2 h with 1 μM trichostatin A (Sigma, St. Louis, Mo., USA) followed by addition of 25 μM Fluor-de-Lys-SIRT1 fluorogenic substrate (Biomol, Plymouth Meeting, Pa., USA) for 4 h. Media containing fluorogenic substrate and reaction product was incubated with an equal volume of SIRT1 assay buffer containing 2 mM nicotinamide and developer (Biomol, Plymouth Meeting, Pa., USA). Signal was quantified by spectrofluorometry (Wallac VICTOR-1420, PerkinElmer Life Science, Waltham, Mass., USA) and normalized to total protein content

HDAC = experiment: Histone deacetylase (HDAC) assay in SMC lysates with [3H]-acetylated histone H4 peptide; type: biochemical, human
Procedure: HITC6 SMC's were stably transduced with pQXCIP-PURO or pQXCIP-PBEF-PURO and HDAC activity determined in cell lysates (25 μg of protein), using [^3H]histone H4 peptide as the substrate. The reactions were quenched by acid hydrolysis and catalytically released [^3H]-acetate was extracted in ethyl acetate.
Histone Deacetylase (HDAC) Assays were employed. Histone H4 peptide (Upstate) was labeled with [^3H]-acetyl Coenzyme A (ICN) using PCAF histone acetylase. Cell lysates were harvested using Passive Lysis Buffer (Promega) and 25 μg of protein was incubated at 37° C. for 6 hours with 50,000 cpm of [^3H]-acetyl histone and 1 mM PMSF in HDAC Assay Buffer (Upstate). Released [^3H]-acetate was extracted with ethyl acetate (31) and counted on a Beckman LS3801 scintillation counter.

HITC6 SMCs [2] = experiment: Replicative lifespan (cumulative population doublings) of HITC6 SMCs; type: cell-based, human
Procedure: To quantify replication, cells were plated at 4500 cells/cm^2 and growth medium with 10% FBS was changed every two days until cells reached 90-95% confluence. Harvested cells were counted from triplicate plates and the number of population doublings was calculated based on: [log10(number of cells harvested)−log10(number of cells seeded)]/[…] (Fukuhara, 2005). Population growth curves were compared using both nonlinear regression and two-way analysis of variance.
Cell Culture. Experiments were performed using primary human SMCs and the HITC6 clonal SMC line, both derived from segments of human internal thoracic artery (Li et al., 1999; Li et al., 2001). SMCs were maintained at 37° C. with 5% CO2 and cultured in Medium 199 (Invitrogen, Carlsbad, Calif., USA) supplemented with 25 mM HEPES, 10% FBS, 1% penicillin/streptomycin, and 1% L-glutamine. Phoenix cells (distributed by ATCC, Manassas, Va., USA) were maintained at 37° C. with 5% CO2 and cultured in Dulbecco's modified Eagle's medium (Invitrogen, Carlsbad, Calif., USA). To quantify replication, cells were seeded at a density of 4500 cells/cm2 and population doublings were calculated using the following formula: […].

[3] = tested on: primary human vascular SMCs; experiment: Replicative lifespan (cumulative population doublings) of primary SMCs; type: cell-based; details: SIRT1-overexpressing primary adult SMCs; p<0.01

T1 sequence (P43490 whole entry): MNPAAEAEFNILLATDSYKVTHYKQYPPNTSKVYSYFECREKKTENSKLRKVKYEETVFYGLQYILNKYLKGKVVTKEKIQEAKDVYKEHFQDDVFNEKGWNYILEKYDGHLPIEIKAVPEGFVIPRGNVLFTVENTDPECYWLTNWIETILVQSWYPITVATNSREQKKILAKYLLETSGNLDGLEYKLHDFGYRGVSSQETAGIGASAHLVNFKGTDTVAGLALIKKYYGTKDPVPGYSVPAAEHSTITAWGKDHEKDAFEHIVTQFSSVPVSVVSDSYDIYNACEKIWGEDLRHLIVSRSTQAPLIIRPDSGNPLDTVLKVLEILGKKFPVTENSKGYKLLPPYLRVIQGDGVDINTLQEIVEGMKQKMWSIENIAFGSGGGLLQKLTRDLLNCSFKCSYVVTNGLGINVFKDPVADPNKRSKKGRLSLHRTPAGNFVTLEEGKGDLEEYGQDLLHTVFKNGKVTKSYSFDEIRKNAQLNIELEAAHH

In the case of `O=C(/C=C/c1cccnc1)NCCCCC1CCN(C(=O)c2ccccc2)CC1` [FK866, reference compound], the “PBEF activity in SMCs, % of baseline” value (Nampt; 10 nM FK866) is reported as 22±2%, the “Nampt activity relative to basal level” value (Nampt; SMCs incubated with 10 nM FK866, p<0.001) is reported as 0.11±0.05 and the “senescence-free survival (Kaplan-Meier)” value (HITC6 SMCs [1]; successive subcultures incubated with 10 nM FK866, p<0.0001) is reported as “substantially shortened”. For the same molecule, the SIRT1 activity (SIRT1) was “substantial loss”.

In the case of `CC(NC(=O)c1ccccc1/N=C/c1c(O)ccc2ccccc12)c1ccccc1` (stereo not drawn) [Sirtinol, sirtinol], the “HDAC activity in PBEF-overexpressing SMC's” value (HDAC; 50 μM sirtinol) is reported as “significantly inhibited” and the “HDAC activity in control SMC's” value (HDAC; 50 μM sirtinol) is reported as “more modest inhibition”.

In the case of trichostatin A, the “HDAC activity in both control and PBEF-overexpressing SMC's” value (HDAC; 40 nM trichostatin A) is reported as “substantially inhibited”.

B1: SIRT1 H363Y: dominant-negative form of SIRT1 (H363Y), retrovirally transduced (protein, UniProt Q96EB6 2-747, looked up, variant H363Y)
NAD-dependent protein …: ADEAALALQPGGSPSAAGADREAASSPAGEPLRKRPRRDGPGLERSPGEPGGAAPEREVPAAARGCPGAAAAALWREAEAEAAAAGGEQEAQATAAAGEGDNGPGLQGPSREPPLADNLYDEDDDDEGEEEEEAAAAAIGYRDNLLFGDEIITNGFHSCESDEEDRASHASSSDWTPRPRIGPYTFVQQHLMIGTDPRTILKDLLPETIPPPELDDMTLWQIVINILSEPPKRKKRKDINTIEDAVKLLQECKKIIVLTGAGVSVSCGIPDFRSRDGIYARLAVDFPDLPDPQAMFDIEYFRKDPRPFFKFAKEIYPGQFQPSLCHKFIALSDKEGKLLRNYTQNIDTLEQVAGIQRIIQCYGSFATASCLICKYKVDCEAVRGDIFNQVVPRCPRCPADEPLAIMKPEIVFFGENLPEQFHRAMKYDKDEVDLLIVIGSSLKVRPVALIPSSIPHEVPQILINREPLPHLHFDVELLGDCDVIINELCHRLGGEYAKLCCNPVKLSEITEKPPRTQKELAYLSELPPTPLHVSEDSSSPERTSPPDSSVIVTLLDQAAKSNDDLDVSESKGCMEEKPQEVQTSRNVESIAEQMENPDLKNVGSSTGEKNERTSVAGTVRKCWPNRVAKEQISRRLDGNQYLFLPPNRYIFHGAEVYSDSEDDVLSSSSCGSNSDSGTCQSPSLEEPMEDESEIEEFYNGLEDEPDVPERAGGAGFGTDGDDQEAINEAISVKQEVTDMNYPSNKS
In the case of B1, the “relative increase in senescence” value (HITC6 SMCs [1]; dominant-negative SIRT1 co-expressed in PBEF-overexpressing SMCs) is reported as 55±12%, the “relative increase in senescence” value (HITC6 SMCs [1]; vector-infected SMCs expressing SIRT1 H363Y) is reported as 15±10% and the “additional population doublings conferred by Nampt” value (HITC6 SMCs [2]; SIRT1 H363Y allele co-expressed with Nampt, p=0.003) is reported as 0.3±0.3 population doublings.

B2: SIRT1: NAD+-dependent deacetylase; tested by retroviral overexpression of human SIRT1 cDNA in SMCs (protein, UniProt Q96EB6 2-747, looked up)
NAD-dependent protein …: B1 NAD-dependent protein … with Y362H
In the case of B2, the “increase in cumulative population doublings vs vector infected SMCs” value [3] is reported as 1.30±0.93 fold and the “increase in number of population doublings” value (HITC6 SMCs [2]; SIRT1-SMCs, clonal longer-lived human SMC line, p<0.05) is reported as 1.17±0.03 fold.
